Assays:
[1] = system: Beet Armyworm (Spodoptera exigua); assay: Bioassay on Beet Armyworm (BAW), 128-well diet tray assay; format: in vivo; details: percent mortality of second instar larvae, 50 μg/cm^2 on artificial diet, five to seven days, 25° C., Table 3; for pest or weed control at 50 µg/cm2, 50 µg/cm2: Spodoptera exigua, 168 h, read-out: BAW Rating
Procedure, shortened: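 Second-instar larvae (one to five per well) were placed on artificial diet surface-treated with 50 μg/cm^2 compound in acetone-water and held at 25 °C, 14:10 light-dark, for five to seven days. Percent mortality was averaged over eight wells.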

[2] = system: Corn Earworm (Helicoverpa zea); assay: Bioassay on Corn Earworm (CEW), 128-well diet tray assay; format: in vivo; details: percent mortality of second instar larvae, 50 μg/cm^2 on artificial diet, five to seven days, 25° C., Table 3; for pest or weed control at 50 µg/cm2: Helicoverpa zea, 168 h, read-out: CEW Rating
Description: Certain molecules disclosed in this document were tested against BAW and CEW and CL using procedures described in the following examples. In the reporting of the results, the “BAW & CEW & CL Rating Table” was used (See Table Section).
Bioassays On CEW (Helicoverpa zea)
Bioassays on CEW were conducted using a 128-well diet tray assay. one to five second instar CEW larvae were placed in each well (3 mL) of the diet tray that had been previously filled with 1 mL of artificial diet to which 50 μg/cm^2 of the test compound (dissolved in 50 μL of 90:10 acetone-water mixture) had been applied (to each of eight wells) and then allowed to dry. Trays were covered with a clear self-adhesive cover, and held at 25° C., 14:10 light-dark for five to seven days. Percent mortality was recorded for the larvae in each well; activity in the eight wells was then averaged. The results are indicated in the table entitled “Table 3: Assay Results” (See Table Section).

| Structure (SMILES) | pest or weed control at 50 µg/cm2, 50 µg/cm2 [1] [%] | pest or weed control at 50 µg/cm2 [2] [%] | BAW Rating [1] | other results |
| --- | --- | --- | --- | --- |
| Cc1cc(/C=C/C(c2cc(Cl)cc(Cl)c2)C(F)(F)F)ccc1C(=O)NCc1cccnc1 (stereo not drawn) [AC14] | 50 to 100 | 0 to 50 | – | – |
| Cc1cc(/C=C/C(c2cc(Cl)c(Cl)c(Cl)c2)C(F)(F)F)ccc1C(=O)NC1CS(=O)(=O)C1 (stereo not drawn) [AC25] | 50 to 100 | 50 to 100 | – | – |
| O=C(NCc1ccc(Cl)nc1)c1ccc(/C=C/C(c2cc(Cl)cc(Cl)c2)C(F)(F)F)cc1Br (stereo not drawn) [AC46] | 50 to 100 | 50 to 100 | – | – |
| CCc1cc(/C=C/C(c2cc(Cl)c(F)c(Cl)c2)C(F)(F)F)ccc1C(=O)NCc1cccnc1Cl (stereo not drawn) [AC76] | 50 to 100 | 50 to 100 | – | – |
| O=C(NC1CCN(CC(F)(F)F)CC1)c1ccc(/C=C/C(c2cc(Cl)c(Cl)c(Cl)c2)C(F)(F)F)cc1Br (stereo not drawn) [AC105, (E)-2-Bromo-4-(4,4,4-trifluoro-3-(3,4,5-trichlorophenyl)but-1-en-1-yl)-N-(1-(2,2,2-trifluoroethyl)piperidin-4-yl)benzamide] | 50 to 100 | 50 to 100 | – | – |
| CN(C)NC(=O)CNC(=O)c1ccc(/C=C/C(c2cc(Cl)c(Cl)c(Cl)c2)C(F)(F)F)cc1Br (stereo not drawn) [AC112] | 50 to 100 | 50 to 100 | – | – |
| CNC(=S)NC1CCc2cc(/C=C/C(c3cc(Cl)c(Cl)c(Cl)c3)C(F)(F)F)ccc21 (stereo not drawn) [BC1, (E)-1-Methyl-3-(5-(4,4,4-trifluoro-3-(3,4,5-trichlorophenyl)-but-1-enyl)-2,3-dihydro-1H-inden-1-yl)thiourea] | 50 to 100 | 50 to 100 | – | – |
| CCNC(=S)NC1CCc2cc(/C=C/C(c3cc(Cl)c(Cl)c(Cl)c3)C(F)(F)F)ccc21 (stereo not drawn) [BC2] | 50 to 100 | 50 to 100 | – | – |
| C=CCNC(=S)NC1CCc2cc(/C=C/C(c3cc(Cl)c(Cl)c(Cl)c3)C(F)(F)F)ccc21 (stereo not drawn) [BC3] | 50 to 100 | 50 to 100 | – | – |
| O=C(NCc1ccc(/C=C/C(c2cc(Cl)c(Cl)c(Cl)c2)C(F)(F)F)cc1Cl)Oc1ccccc1Cl (stereo not drawn) [CC40] | – | – | – | CEW Rating [2]: A (50-100) |
| FC(F)(F)C(/C=C/c1ccc(-n2cncn2)cc1)c1ccc(Cl)c(Cl)c1 (stereo not drawn) [DC12] | – | – | A (50-100) | – |
| FC(F)(F)C(/C=C/c1ccc(-n2cncn2)cc1)c1ccc(Cl)cc1Cl (stereo not drawn) [DC13] | 50 to 100 | 50 to 100 | – | – |
| FC(F)(F)c1cc(C(/C=C/c2ccc(-n3cncn3)cc2)C(F)(F)F)cc(C(F)(F)F)c1 (stereo not drawn) [DC16] | – | – | A (50-100) | – |
| FC(F)(F)C(/C=C/c1ccc(-n2cncn2)cc1)c1cc(Cl)cc(Cl)c1Cl (stereo not drawn) [DC17] | 50 to 100 | 50 to 100 | – | – |
| FC(F)(F)C(/C=C/c1ccc(-n2cncn2)cc1)c1cc(Cl)c(Cl)c(Cl)c1 (stereo not drawn) [DC18] | 50 to 100 | 50 to 100 | – | – |
| FC(F)(F)c1cc(Cl)cc(C(/C=C/c2ccc(-n3cncn3)cc2)C(F)(F)F)c1 (stereo not drawn) [DC19] | 50 to 100 | 50 to 100 | – | – |
| COc1c(Cl)cc(C(/C=C/c2ccc(-n3cncn3)cc2)C(F)(F)F)cc1Cl (stereo not drawn) [DC20] | – | – | A (50-100) | – |
| N#Cc1cc(/C=C/C(c2cc(Cl)cc(Cl)c2)C(F)(F)F)ccc1-n1cncn1 (stereo not drawn) [DC29] | 50 to 100 | 50 to 100 | – | – |
| N#Cc1cc(/C=C/C(c2cc(C(F)(F)F)cc(C(F)(F)F)c2)C(F)(F)F)ccc1-n1cncn1 (stereo not drawn) [DC30] | 50 to 100 | 50 to 100 | – | – |
| N#Cc1cc(/C=C/C(c2cc(Cl)cc(C(F)(F)F)c2)C(F)(F)F)ccc1-n1cncn1 (stereo not drawn) [DC33] | – | – | A (50-100) | – |
| COc1c(Cl)cc(C(/C=C/c2ccc(-n3cncn3)c(C#N)c2)C(F)(F)F)cc1Cl (stereo not drawn) [DC34] | – | – | A (50-100) | – |
| N#Cc1cc(/C=C/C(c2cc(Cl)c(F)c(Cl)c2)C(F)(F)F)ccc1-n1cncn1 (stereo not drawn) [DC35] | – | – | A (50-100) | – |
| N#Cc1cc(/C=C/C(c2cc(Cl)cc(Cl)c2)C(F)(F)F)ccc1-n1cnc([N+](=O)[O-])n1 (stereo not drawn) [DC37] | – | – | A (50-100) | – |

| Structure (SMILES) | pest or weed control at 50 µg/cm2, 50 µg/cm2 [1] [%] | pest or weed control at 50 µg/cm2 [2] [%] | BAW Rating [1] | other results |
| --- | --- | --- | --- | --- |
| N#Cc1cc(/C=C/C(c2cc(Cl)cc(Cl)c2)C(F)(F)F)ccc1-n1cnc(N)n1 (stereo not drawn) [DC38] | – | – | A (50-100) | – |
| CC(=O)Nc1ncn(-c2ccc(/C=C/C(c3cc(Cl)cc(Cl)c3)C(F)(F)F)cc2C#N)n1 (stereo not drawn) [DC39] | – | – | A (50-100) | – |
| N#Cc1cc(/C=C/C(c2cc(Cl)c(Cl)c(Cl)c2)C(F)(F)F)ccc1-n1cnc([N+](=O)[O-])n1 (stereo not drawn) [DC40, (E)-2-(3-Nitro-1H-1,2,4-triazol-1-yl)-5-(4,4,4-trifluoro-3-(3,4,5-trichlorophenyl)but-1-en-1-yl)benzonitrile] | – | – | A (50-100) | – |
| N#Cc1cc(/C=C/C(c2cc(Cl)c(Cl)c(Cl)c2)C(F)(F)F)ccc1-n1cnc(N)n1 (stereo not drawn) [DC41, (E)-2-(3-Amino-1H-1,2,4-triazol-1-yl)-5-(4,4,4-trifluoro-3-(3,4,5-trichlorophenyl)but-1-en-1-yl)benzonitrile] | – | – | A (50-100) | – |
| N#Cc1cc(/C=C/C(c2cc(Cl)c(Cl)c(Cl)c2)C(F)(F)F)ccc1-n1cnc(N(C(=O)C2CC2)C(=O)C2CC2)n1 (stereo not drawn) [DC42, (E)-N-(1-(2-Cyano-4-(4,4,4-trifluoro-3-(3,4,5-trichlorophenyl)but-1-en-1-yl)phenyl)-1H-1,2,4-triazol-3-yl)-N-(cyclopropanecarbonyl)cyclopropanecarboxamide] | – | – | A (50-100) | – |
| N#Cc1cc(/C=C/C(c2cc(Cl)c(Cl)c(Cl)c2)C(F)(F)F)ccc1-n1cnc(NC(=O)C2CC2)n1 (stereo not drawn) [DC43, (E)-N-(1-(2-Cyano-4-(4,4,4-trifluoro-3-(3,4,5-trichlorophenyl)but-1-en-1-yl)phenyl)-1H-1,2,4-triazol-3-yl)cyclopropanecarboxamide] | – | – | A (50-100) | – |
| Cc1cc(/C=C/C(c2cc(Cl)cc(Cl)c2)C(F)(F)F)cc(C#N)c1-n1cncn1 (stereo not drawn) [DC44] | – | – | A (50-100) | – |
| Cc1cc(/C=C/C(c2cc(Cl)c(Cl)c(Cl)c2)C(F)(F)F)cc(C#N)c1-n1cncn1 (stereo not drawn) [DC45] | – | – | A (50-100) | – |
| N#Cc1cc(/C=C\C(c2cc(Cl)c(F)c(Cl)c2)C(F)(F)F)ccc1-n1cncn1 (stereo not drawn) [DC46] | – | – | A (50-100) | – |
| FC(F)(F)C(/C=C/c1ccc(-n2cncn2)c(Br)c1)c1cc(Cl)cc(Cl)c1 (stereo not drawn) [DC47] | – | – | A (50-100) | – |
| Fc1cc(/C=C/C(c2cc(Cl)cc(Cl)c2)C(F)(F)F)ccc1-n1cncn1 (stereo not drawn) [DC48] | – | – | A (50-100) | – |
| FC(F)(F)C(/C=C/c1ccc(-n2cncn2)c(Cl)c1)c1cc(Cl)c(Cl)c(Cl)c1 (stereo not drawn) [DC49] | – | – | A (50-100) | – |
| FC(F)(F)C(/C=C/c1ccc(-n2cncn2)c(Cl)c1)c1cc(Cl)cc(Cl)c1 (stereo not drawn) [DC50] | – | – | A (50-100) | – |
| FC(F)(F)c1cc(/C=C/C(c2cc(Cl)cc(Cl)c2)C(F)(F)F)ccc1-n1cncn1 (stereo not drawn) [DC51] | – | – | A (50-100) | – |
| CNc1cc(/C=C/C(c2cc(Cl)cc(Cl)c2)C(F)(F)F)ccc1-n1cncn1 (stereo not drawn) [DC57, (E)-5-(3-(3,5-Dichlorophenyl)-4,4,4-trifluorobut-1-en-1-yl)-N-methyl-2-(1H-1,2,4-triazol-1-yl)aniline] | – | – | A (50-100) | – |
| CCOC(=O)c1cc(/C=C/C(c2cc(Cl)cc(Cl)c2)C(F)(F)F)ccc1-n1cncn1 (stereo not drawn) [DC60] | – | – | A (50-100) | – |
| Cc1cc(/C=C/C(c2cc(Cl)cc(Cl)c2)C(F)(F)F)ccc1-n1cncn1 (stereo not drawn) [DC62] | – | – | A (50-100) | – |
| Cc1cc(/C=C/C(c2cc(Cl)c(Cl)c(Cl)c2)C(F)(F)F)ccc1-n1cncn1 (stereo not drawn) [DC63] | – | – | A (50-100) | – |
| FC(F)(F)C(/C=C/c1ccc(-n2cncn2)cc1Cl)c1cc(Cl)c(Cl)c(Cl)c1 (stereo not drawn) [DC66] | – | – | A (50-100) | – |
| FC(F)(F)C(/C=C/c1ccc(-n2cncn2)cc1Cl)c1cc(Cl)cc(Cl)c1 (stereo not drawn) [DC67] | – | – | A (50-100) | – |
| C/C(=C\C(c1cc(Cl)cc(Cl)c1)C(F)(F)F)c1ccc(-n2cncn2)cc1 (stereo not drawn) [DC68, (E)-1-(4-(4-(3,5-Dichlorophenyl)-5,5,5-trifluoropent-2-en-2-yl)phenyl)-1H-1,2,4-triazole] | – | – | A (50-100) | – |
| COC(/C=C/c1ccc(-n2cncn2)cc1)(c1cc(Cl)cc(Cl)c1)C(F)(F)F (stereo not drawn) [DC70, (E)-1-(4-(3-(3,5-Dichlorophenyl)-4,4,4-trifluoro-3-methoxybut-1-en-1-yl)phenyl)-1H-1,2,4-triazole] | – | – | A (50-100) | – |

Reference: patent publication US9510592B2, “Pesticidal compositions and processes related thereto” (Dow AgroSciences LLC, priority 2012, dated 2016)
